Drawing on PubChem BioAssay AID1259407 (Chemical Carcinogenesis Research Information System (CCRIS), 2018), this text covers mutagenic call for seven molecules.

Activity calls are given as the source filed them. The rule behind the calls is not given here.

This data set has as its system CCRIS mutagenicity, Ames/micronucleus/aberration tests. Put plainly: CCRIS mutagenicity studies.
The mark [1] stands for this setting: Test System: AMES SALMONELLA TYPHIMURIUM, Strain/Indicator: TA98, Metabolic Activation: NONE, Method: STANDARD PLATE.
The mark [2] stands for this setting: Test System: AMES SALMONELLA TYPHIMURIUM, Strain/Indicator: TA98, Metabolic Activation: RAT, LIVER, S-9, AROCLOR 1254, Method: STANDARD PLATE.
Where [3] appears, read: Test System: AMES SALMONELLA TYPHIMURIUM, Strain/Indicator: TA100, Metabolic Activation: NONE, Method: STANDARD PLATE.
Where [4] appears, read: Test System: AMES SALMONELLA TYPHIMURIUM, Strain/Indicator: TA100, Metabolic Activation: RAT, LIVER, S-9, AROCLOR 1254, Method: STANDARD PLATE.
Where [5] appears, read: Test System: AMES SALMONELLA TYPHIMURIUM, Strain/Indicator: TA102, Metabolic Activation: NONE, Method: STANDARD PLATE.
The mark [6] stands for this setting: Test System: AMES SALMONELLA TYPHIMURIUM, Strain/Indicator: TA1535, Metabolic Activation: NONE, Method: STANDARD PLATE.
Where [7] appears, read: Test System: AMES SALMONELLA TYPHIMURIUM, Strain/Indicator: TA100, Metabolic Activation: NONE, Method: PREINCUBATION

With `C=C1CC/C=C(/C)CC[C@@H]2[C@@H]1CC2(C)C`, the mutagenic call (Test System: AMES SALMONELLA TYPHIMURIUM, Strain/Indicator: TA98, Metabolic Activation: HAMSTER, LIVER, S-9, AROCLOR 1254, Method: STANDARD PLATE) was “inactive; negative”; the mutagenic call under setting [1] is “inactive; negative”; the mutagenic call under setting [2] is “inactive; negative”; the mutagenic call (Test System: AMES SALMONELLA TYPHIMURIUM, Strain/Indicator: TA100, Metabolic Activation: HAMSTER, LIVER, S-9, AROCLOR 1254, Method: STANDARD PLATE) was “inactive; negative”; the mutagenic call under setting [3] is “inactive; negative”; the mutagenic call under setting [4] is “inactive; negative”. Besides, the mutagenic call reads like this: (Test System: AMES SALMONELLA TYPHIMURIUM, Strain/Indicator: TA102, Metabolic Activation: HAMSTER, LIVER, S-9, AROCLOR 1254, Method: STANDARD PLATE) “inactive; negative”; under setting [5], “inactive; negative”; (Test System: AMES SALMONELLA TYPHIMURIUM, Strain/Indicator: TA102, Metabolic Activation: RAT, LIVER, S-9, AROCLOR 1254, Method: STANDARD PLATE) “inactive; negative”; (Test System: AMES SALMONELLA TYPHIMURIUM, Strain/Indicator: TA1535, Metabolic Activation: HAMSTER, LIVER, S-9, AROCLOR 1254, Method: STANDARD PLATE) “inactive; negative”; under setting [6], “inactive; negative”; (Test System: AMES SALMONELLA TYPHIMURIUM, Strain/Indicator: TA1535, Metabolic Activation: RAT, LIVER, S-9, AROCLOR 1254, Method: STANDARD PLATE) “inactive; negative”. In addition, the mutagenic call is “inactive; negative” (Test System: AMES SALMONELLA TYPHIMURIUM, Strain/Indicator: TA1537, Metabolic Activation: HAMSTER, LIVER, S-9, AROCLOR 1254, Method: STANDARD PLATE); “inactive; negative” (Test System: AMES SALMONELLA TYPHIMURIUM, Strain/Indicator: TA1537, Metabolic Activation: NONE, Method: STANDARD PLATE); “inactive; negative” (Test System: AMES SALMONELLA TYPHIMURIUM, Strain/Indicator: TA1537, Metabolic Activation: RAT LIVER, S-9, AROCLOR 1254, Method: STANDARD PLATE); “inactive; positive; reevaluation of results: negative” (Test System: MOUSE LYMPHOMA, Strain/Indicator: L5178Y (TK+/TK-), Metabolic Activation: NONE, Method: SUSPENSION/PLATE); “equivocal” (Test System: Mouse lymphoma, Strain/Indicator: L5178Y (tk+/tk-), Metabolic Activation: Rat, Liver, S-9, Aroclor 1254, Method: Suspension/plate).
`O=C(/C=C/c1ccccc1)c1ccc(O)cc1`: the mutagenic call is, setting by setting: under setting [1], “inactive; negative”; under setting [2], “inactive; negative”; under setting [3], “inactive; negative”; under setting [4], “inactive; negative”.
As to `CC(C)=CCCC(C)CC=O` (stereo not drawn), the mutagenic call is “inactive; negative” (Test System: AMES SALMONELLA TYPHIMURIUM, Strain/Indicator: TA97A, Metabolic Activation: NONE, Method: STANDARD PLATE); “inactive; negative” (Test System: AMES SALMONELLA TYPHIMURIUM, Strain/Indicator: TA97A, Metabolic Activation: RAT LIVER S-9, AROCLOR 1254, Method: STANDARD PLATE); “inactive; negative” under setting [1]; “inactive; negative” (Test System: AMES SALMONELLA TYPHIMURIUM, Strain/Indicator: TA98, Metabolic Activation: RAT LIVER S-9, AROCLOR 1254, Method: STANDARD PLATE); “inactive; negative” under setting [3]; “inactive; negative” (Test System: AMES SALMONELLA TYPHIMURIUM, Strain/Indicator: TA100, Metabolic Activation: RAT LIVER S-9, AROCLOR 1254, Method: STANDARD PLATE). Further, the mutagenic call under setting [5] is “inactive; negative” and the mutagenic call (Test System: AMES SALMONELLA TYPHIMURIUM, Strain/Indicator: TA102, Metabolic Activation: RAT LIVER S-9, AROCLOR 1254, Method: STANDARD PLATE) is “inactive; negative”.
As to `CC(F)(Cl)Cl`, the mutagenic call was “inactive; negative” (End Point: IN VIVO MICRONUCLEUS, Test System: BONE MARROW, Species: RAT, Strain/Sex: SPRAGUE-DAWLEY/FEMALE, Route: INHALATION) and “active; positive” (End Point: IN VIVO MICRONUCLEUS, Test System: BONE MARROW, Species: RAT, Strain/Sex: SPRAGUE-DAWLEY/MALE, Route: INHALATION).
In the case of `COc1ccccc1CC1CO1` (stereo not drawn), the mutagenic call was “active; positive” under setting [7]; “active; positive” under setting [3]; “active; positive” (Test System: AMES SALMONELLA TYPHIMURIUM, Strain/Indicator: TA1535, Metabolic Activation: NONE, Method: PREINCUBATION); “active; positive” under setting [6].
`CC1(C(Cl)Cl)C2[C@@H](Cl)[C@H](Cl)C1(C(Cl)Cl)[C@@H](Cl)[C@@H]2Cl` (stereo partly drawn): the mutagenic call under setting [7] is “inactive; negative”.
Regarding `[S]1[S][SbH][S][S][SbH]1`, the mutagenic call by setting is: (Test System: CHINESE HAMSTER OVARY, Strain/Indicator: CHO (HGPRT)/6-THIOGUANINE, Metabolic Activation: NONE) “inactive; negative”; (Test System: CHINESE HAMSTER OVARY, Strain/Indicator: CHO (HGPRT)/6-THIOGUANINE, Metabolic Activation: RAT, LIVER, S-9, AROCLOR 1254) “inactive; negative”.
